Experimental data reported in US20110184018A1, “METHOD FOR TREATING PERIPHERAL NEUROPATHIC PAIN” (LOHOCLA RESEARCH CORPORATION, priority 2005, published 2011).

Assays:
[1] = Solubility limit in aqueous assay buffers; assay type: physicochemical; conditions: aqueous assay buffers (incubation or bath solutions), aqueous buffer, kinetic from dmso stock, DMSO 0.2 to 1%, read-out: concentrations that could not be tested due to limited solubility in aqueous buffers
Method: Drugs. For all in vitro assays, stock solutions of DCUKA or DCUK-OMe were prepared fresh daily in dimethylsulfoxide (DMSO) then diluted into the incubation or bath solutions with sonication to the desired concentrations for experiments. Due to their limited solubility in aqueous buffers, DCUKA concentrations >300 μM and DCUK-OMe concentrations >100 μM could not be tested. In those assays where high ionic strength buffers were used, i.e., [^3H]batrachiotoxin (BTX) binding in depolarized synaptosomes, concentrations >50 μM could not be tested. The final concentration of DMSO in the assays ranged from 0.2 to 1%. In all assays, drug effects were compared with effects measured in the presence of the identical concentration of DMSO without drug.

CB1 receptor [2] = target: T1, CB1 receptor (Homo sapiens, UniProt P21554); assay: cAMP accumulation in HEK293 cells transfected with AC5, D1AR, CB1R; assay type: cell-based
T1 construct: expressed in transfected cells; host or cells: HEK293 cells (ATCC), calcium phosphate transfection
Method: HEK293 cells were obtained from American Type Culture Collection (Manassas, Va.). Cells were cultured in 225 mL flasks containing 39 mL of MEM containing 10% fetal bovine serum, penicillin (50 μg/mL), streptomycin (50 μg/mL), and neomycin (100 μg/mL). The flasks were maintained in a humidified atmosphere of 95% air and 5% CO2 at about 37° C. Transfection was performed by the method of DNA precipitation with calcium phosphate 1 day after HEK 293 cells were transferred to small flasks (75 mL) at the density of approximately 60 to 80% confluence. Plasmid DNA containing AC5 or AC7 cDNA (11.5 μg), plasmid DNA carrying the human D1A dopamine receptor cDNA (3 μg) and CB1 receptor cDNA (3 μg), and pCMS-EGFP (1 μg) were used for each small flask, which also contained 13 mL of the culture medium. The amount of DNA per flask was adjusted to a total of 26 μg using vector DNA. Transfection efficiency was routinely monitored by observing the expression of enhanced green fluorescent protein (GFP) by an epifluorescence microscope equipped with a filter set (excitation, 480/40 nm; emission, 535/50 nm) and a dichroic mirror (T89002bs; Chroma Technology, Rockingham, Vt.). After transfection, cells were harvested and transferred into 24-well culture plates. The transfected cells were cultured for 1 to 2 days before the cAMP accumulation experiments were carried out.
After labeling and intracellular ATP pool with 3.0 μCi/mL of [2,8-^3H]adenine, cells were incubated in DMEM (0.5 mL/well) without phenol red, buffered to pH 7.1 with 20 mM of 4-(2-hydroxyethyl)-1-piperazineethanesulfonic acid (HEPES) for 30 minutes at 37° C.
To determine the effect of the DCUK-OEt or other compounds on the function of the CB1 receptor, the cells were treated with the phosphodiesterase inhibitor, IBMX (500 μM), for 10 minutes at 37° C., followed by the addition of D1A receptor agonist, dopamine (DA) (1 μM), in the presence of a known CB1 agonist or agonist, plus a CB1 antagonist for 5 minutes. The following agonist and antagonist were used: CB1 receptor agonist, ACEA (10 μM); CB1 receptor antagonist, AM251 (10 μM). In additional reactions, the addition of DA was accompanied by addition of DCUK-OEt (10 μM) or DCUK-OEt together with AM251 (10 μM). In a final set of reactions DCUK-OEt was added with ACEA (10 μM), to assess whether DCUK-OEt acted like a CB1 receptor antagonist. The reactions were terminated by adding 50 μL of 100% (w/v) tricholoroacetic acid. ATP and cAMP were separated through Dowex 50 and neutral alumina columns as is known in the art, and quantified by liquid scintillation counting. [α-^32P]ATP and 8-[^14C]cAMP were added as internal standards to monitor the recovery of ATP and cAMP through column chromatography. Conversion of [^3H] ATP into [^3H]cAMP was calculated as follows: [^3H]cAMP (%)=[^3H]cAMP (cpm)/([^3H]ATP (cpm)+[^3H]cAMP (cpm))·100. [^3H]cAMP (%) values obtained from cells which underwent only the 10-minute IBMX incubation period before the addition of trichloroacetic acid, were used as blanks and these values were subtracted from the values obtained from cells which underwent the 1-minute incubation period with DA in the presence or absence of other agonists/antagonists. Each condition was assayed in triplicate and the whole experimental procedure was repeated 4 times. The ratio of cAMP accumulation was calculated for all treatment groups versus DA treatment group (100%) and the values were averaged among the four batches of experiments.

CB1 receptor [3] = target: T1, CB1 receptor; assay: cAMP accumulation in HEK293 cells transfected with AC7, D1AR, CB1R; assay type: cell-based; conditions: dopamine stimulated cAMP
Method: HEK293 cells were obtained from American Type Culture Collection (Manassas, Va.). Cells were cultured in 225 mL flasks containing 39 mL of MEM containing 10% fetal bovine serum, penicillin (50 μg/mL), streptomycin (50 μg/mL), and neomycin (100 μg/mL). The flasks were maintained in a humidified atmosphere of 95% air and 5% CO2 at about 37° C. Transfection was performed by the method of DNA precipitation with calcium phosphate 1 day after HEK 293 cells were transferred to small flasks (75 mL) at the density of approximately 60 to 80% confluence. […] Transfection efficiency was routinely monitored by observing the expression of enhanced green fluorescent protein (GFP) by an epifluorescence microscope equipped with a filter set (excitation, 480/40 nm; emission, 535/50 nm) and a dichroic mirror (T89002bs; Chroma Technology, Rockingham, Vt.). […]
To determine the effect of the DCUK-OEt or other compounds on the function of the CB1 receptor, the cells were treated with the phosphodiesterase inhibitor, IBMX (500 μM), for 10 minutes at 37° C., followed by the addition of D1A receptor agonist, dopamine (DA) (1 μM), in the presence of a known CB1 agonist or agonist, plus a CB1 antagonist for 5 minutes. […] ATP and cAMP were separated through Dowex 50 and neutral alumina columns as is known in the art, and quantified by liquid scintillation counting. […]

C57BL/6 mice = assay: Elevated-plus maze (anxiolytic effects); assay type: in vivo, mouse; conditions: i.p., about 60 minutes before testing
Method: In Panel A, mice were administered (i.p.) the indicated doses of DCUK-OEt about 60 minutes before behavioral testing on the elevated-plus maze. The number of times entered and the time spent in the open arms of the plus-maze were recorded. In Panel B, groups of mice were administered (i.p.) 50 mg/kg DCUK-OEt in an injection vehicle (5% TWEEN 80/0.5% methylcellulose) and tested at the indicated times with comparison to mice injected with vehicle alone. In both panels, mice treated with vehicle alone (i.e., absent the DCUKA compound) were tested 60 minutes after injection of vehicle. A greater percent of time spent in the open arms indicates an anxiolytic action of the drug. Significant differences in the percent time spent on the open arms of the maze are evident at doses as low as 25mg/kg. […]
The anxiolytic effect of the DCUK-OMe was tested in C57BL/6 mice with an elevated-plus maze apparatus. […] A trained observer blind to the treatment conditions scored the number of entries into open arms and the number of entries into closed arms over a 5-minutes period. […] The percentage of open arm entries (open arm entries/total arm entries) was calculated for each animal and used as a measure of the anxiolytic/anxiogenic effects of drug treatment. In addition, the total number of entries made into the […] was recorded as a measure of drug effects on locomotor activity. […]

T1 sequence (P21554 whole entry): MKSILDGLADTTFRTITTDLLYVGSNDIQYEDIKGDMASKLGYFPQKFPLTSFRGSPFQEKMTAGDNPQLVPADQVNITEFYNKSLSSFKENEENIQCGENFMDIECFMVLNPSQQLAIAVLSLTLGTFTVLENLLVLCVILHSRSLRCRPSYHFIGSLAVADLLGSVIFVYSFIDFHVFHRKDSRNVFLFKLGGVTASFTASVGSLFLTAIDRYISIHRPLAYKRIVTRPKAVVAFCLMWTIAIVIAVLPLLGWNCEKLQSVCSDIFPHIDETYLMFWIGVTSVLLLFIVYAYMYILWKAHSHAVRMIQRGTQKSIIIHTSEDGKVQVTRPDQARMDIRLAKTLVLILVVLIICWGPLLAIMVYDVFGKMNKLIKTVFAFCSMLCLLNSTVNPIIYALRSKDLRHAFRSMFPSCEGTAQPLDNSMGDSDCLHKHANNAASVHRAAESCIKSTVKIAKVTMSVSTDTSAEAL

O=C(O)c1cc(NC(=O)N(c2ccccc2)c2ccccc2)c2c(Cl)cc(Cl)cc2n1 [DCUKA, N,N-diphenyl-4-ureido-5,7-dichloro-2-carboxyquinoline]
solubility [1]: > 300 µM

CCOC(=O)c1cc(NC(=O)N(c2ccccc2)c2ccccc2)c2c(Cl)cc(Cl)cc2n1 [DCUK-OEt, N,N-diphenyl-4-ureido-5,7-dichloro-2-carboxy quinoline ethyl ester]
effect on DA stimulated cAMP production with AM251 added (CB1 receptor [2]; AM251 10 μM): reversed by AM251 | reversal of the effects of ACEA (CB1 receptor [2]; added with ACEA 10 μM): did not reverse the effects of ACEA | effect on DA stimulated cAMP production (CB1 receptor [2]; dopamine 1 μM, compound 10 μM): reduced DA stimulated cAMP production | functional action at CB1 receptor (CB1 receptor [3]): acts like an agonist at the CB1 receptor | lowest dose with significant differences in percent time spent on the open arms (C57BL/6 mice): 25 mg/kg
